# In patent publication EP0426075A1, “Benzylpyrrolidine derivatives as dopamine agonists” (SYNTEX (U.S.A.) INC., priority 1989, dated 1991):
# Assays:
# DA1 receptor = assay: Goldberg in situ renal arterial preparation (renal DA1 assay), intra-arterial injection; type: in vivo, dog; conditions: for Relative Efficacy to DA1 Standard: optimal response of test compound divided by optimal response of dopamine; for ED50: renal blood flow increase, i.a. bolus into renal artery, anesthetized dog; for Relative Potency to DA1 Standard: standard (dopamine) ED50 divided by test compound ED50
# Description: (§1) The compounds were subsequently tested following intra-arterial administration in an in situ renal and femoral arterial preparation in the dog, as developed by L.I. Goldberg, to test for DA1 and DA2 dopamine activity, respectively. Details of the methodology are provided in the European J. Pharmacol. 89 :137, 1983, as well as in Hypertension 6 :1-25, 1984.
# as §1, with “compounds of this invention” for “compounds”, “were” for “were subsequently”, “Pharmacol. ,” for “Pharmacol.”, “Hypertension ,” for “Hypertension”, “1984. J. L. McNay, L. I. Goldberg JPET 151 :23-31, 1966.” for “1984.”
# (§2) The compounds were injected directly into the renal or femoral artery for analysis of DA, or DA2 activity, respectively. […] The compounds were tested for relative activity in comparison to the standard DA, agonist, dopamine or the standard DA2 agonist, DPDA. Specific DA, or DA2 activity of the tested compound was verified by Sch 23390 or domperidone blockade.
# Adult mongrel dogs of either sex (12-20 kg) were anesthetized with pentobarbital sodium (33 mg/kg, i.v.). The animals were intubated and ventilated with room air using a Harvard respirator.
# as §1, with “compounds of this invention” for “compounds”, “were” for “were subsequently”, “Pharmacol. ,” for “Pharmacol.”, “Hypertension ,” for “Hypertension”, “1984. J. L. McNay, L. I. Goldberg JPET 151 :23-31, 1966” for “1984.”
# as §2, with “of DA1” for “of DA,”, “standard DA1” for “standard DA,”
# The abdominal aorta was catheterized with a Millar micro-tip (size: 5F) transducer via the right femoral artery for blood pressure monitoring. The right femoral vein was cannulated with PE-160 tubing for iv saline infusion, as well as supplemental pentobarbital administration. The left renal artery was isolated through a lateral abdominal incision. An electromagnetic flowprobe of the appropriate size (8-11 mm circ.) was placed around the artery and connected to a Carolina Medical electromagnetic flowmeter. Surface ECG leads were placed subcutaneously on the chest and limbs to monitor heart rate. A 25 gauge 3/4" needle bent 90°, 4 mm from the tip, was placed in the renal artery proximal to the probe and connected to an infusion pump delivering saline at a constant rate of 1 ml/min. Following a saline and 1µg norepinephrine (NE) challenge, both given in an injection volume of 0.2 ml, the animal was treated with a phenoxybenzamine, 0.5 mg/kg/min i.a., infusion for a duration of 10-20 minutes as necessary to achieve a complete blockade of the NE challenge. Blood pressure was maintained by supplemental saline infusion (10-20 ml/kg, iv). Bradykinin, a standard for nonspecific vasodilation, was given at 0.60 nmole doses, in 0.2 ml saline, i.a., prior to generating a dose response curve for dopamine in which 4-fold increasing doses, ranging from 3 to 48 nmoles, were injected i.a. in 0.2 ml of saline (i.a. bolus). Test compounds were injected similarly in 4-fold increasing doses up to a maximum of 3000 nmoles. Compounds were then repeated at their optimal dose following Sch 23390 pretreatment (0.05 - 0.10 mg/kg, iv).
# Efficacy ratios were determined by division of the optimal response of the test compound by the optimal response of the standard agent.
# [1] = system: conscious restrained spontaneously hypertensive rat; assay: Spontaneous Hypertensive Rats - antihypertensive activity, conscious restrained, oral; type: in vivo; conditions: for Peak decreases, mean blood pressure / Peak decreases, systolic blood pressure / heart rate following administration / duration of action: SHR, oral; for duration of action: blood pressure decrease; for Diastolic Blood Pressure (mm Hg) / Heart Rate (beats/ min) / Mean Blood Pressure (mm Hg) / Systolic Blood Pressure (mm Hg): change from control (XΔ ± SD), n = 4
# Description: Finally, these compounds were screened for oral antihypertensive activity in the conscious restrained rat. Adult male SHR were instrumented for blood pressure and heart rate measurements under light ether anesthesia. The animals were maintained on a plexiglass restraining board following surgery, and were allowed a 1 hour recovery period prior to the oral administration of the test compounds.
# The compounds of this invention were screened for oral antihypertensive activity in the conscious restrained spontaneously hypertensive rat.
# Male spontaneously hypertensive rats, SHR/NCrIBr (320-410 g) were fasted overnight. The following morning the left femoral artery and vein of each rat was cannulated under light ether anesthesia. Following surgery, the rats were placed on a rat restraining board and allowed to recover from the effects of the ether for 1 hour. ECG leads were placed on the animal's chest to monitor heart rate. Animals were divided into groups of 4 and dosed with the test compounds.
# Blood pressure and heart rate readings were taken at 5 minute intervals for the first 15 minutes and […] thereafter for a duration of 4 hour post-compound administration. Data was evaluated by two- tailed paired t-tests.
smiles,measurement,setting,value
"Br.Br.CCCN(CCCCCCN1CCC[C@@H]1Cc1ccc(O)c(O)c1)CCc1ccc(O)cc1 [Test Compound 1, (R)-2-(3,4-dihydroxybenzyl)-1-[6-(N-(4-hydroxyphenethyl)-N-propylamino)hexyl]pyrrolidine dihydrobromide]",Relative Efficacy to DA1 Standard,DA1 receptor,1.10
same,ED50,DA1 receptor,0.87 nmol
same,Relative Potency to DA1 Standard,DA1 receptor,6.44
same,"Peak decreases, mean blood pressure",[1],about 20%
same,"Peak decreases, systolic blood pressure",[1],about 20%
same,heart rate following administration,[1],not significantly altered
same,duration of action,[1],up to 4 hours
"Br.Br.CCCN(CCCCCCN1CCC[C@@H]1Cc1ccc(O)c(O)c1)CCc1cccc(O)c1 [Test Compound 2, (R)-2-(3,4-dihydroxybenzyl)-1-[6-(N-(3-hydroxyphenethyl)-N-propylamino)hexyl]pyrrolidine dihydrobromide]",Relative Efficacy to DA1 Standard,DA1 receptor,0.93
same,ED50,DA1 receptor,0.34 nmol
same,Relative Potency to DA1 Standard,DA1 receptor,17.47
same,"Peak decreases, mean blood pressure",[1],17%
same,"Peak decreases, systolic blood pressure",[1],17%
same,heart rate following administration,[1],not significantly altered
same,duration of action,[1],up to 4 hours
same,Diastolic Blood Pressure (mm Hg),"[1]; po 3 mg/kg, 1 hour",-8 ± 12 mm Hg
same,Heart Rate (beats/ min),"[1]; po 3 mg/kg, 1 hour",-5 ± 12 beats/ min
same,Mean Blood Pressure (mm Hg),"[1]; po 3 mg/kg, 1 hour",-12 ± 18 mm Hg
same,Systolic Blood Pressure (mm Hg),"[1]; po 3 mg/kg, 1 hour",-13 ± 25 mm Hg
same,Diastolic Blood Pressure (mm Hg),"[1]; po 3 mg/kg, 2 hours",-6 ± 3 mm Hg
same,Heart Rate (beats/ min),"[1]; po 3 mg/kg, 2 hours",5 ± 11 beats/ min
same,Mean Blood Pressure (mm Hg),"[1]; po 3 mg/kg, 2 hours",-7 ± 8 mm Hg
same,Systolic Blood Pressure (mm Hg),"[1]; po 3 mg/kg, 2 hours",-9 ± 13 mm Hg
same,Diastolic Blood Pressure (mm Hg),"[1]; po 3 mg/kg, 3 hours",-4 ± 17 mm Hg
same,Heart Rate (beats/ min),"[1]; po 3 mg/kg, 3 hours",6 ± 18 beats/ min
same,Mean Blood Pressure (mm Hg),"[1]; po 3 mg/kg, 3 hours",-8 ± 14 mm Hg
same,Systolic Blood Pressure (mm Hg),"[1]; po 3 mg/kg, 3 hours",-19 ± 22 mm Hg
same,Diastolic Blood Pressure (mm Hg),"[1]; po 3 mg/kg, 4 hours",-9 ± 7 mm Hg
same,Heart Rate (beats/ min),"[1]; po 3 mg/kg, 4 hours",10 ± 23 beats/ min
same,Systolic Blood Pressure (mm Hg),"[1]; po 3 mg/kg, 4 hours",-29 ± 19 mm Hg
same,Diastolic Blood Pressure (mm Hg),"[1]; po 10 mg/kg, 1 hour",-19 ± 3 mm Hg
same,Heart Rate (beats/ min),"[1]; po 10 mg/kg, 1 hour",-11 ± 6 beats/ min
same,Mean Blood Pressure (mm Hg),"[1]; po 10 mg/kg, 1 hour",-21 ± 3 mm Hg
same,Systolic Blood Pressure (mm Hg),"[1]; po 10 mg/kg, 1 hour",-26 ± 6 mm Hg
same,Diastolic Blood Pressure (mm Hg),"[1]; po 10 mg/kg, 2 hours",-11 ± 21 mm Hg
same,Heart Rate (beats/ min),"[1]; po 10 mg/kg, 2 hours",-6 ± 8 beats/ min
same,Mean Blood Pressure (mm Hg),"[1]; po 10 mg/kg, 2 hours",-21 ± 8 mm Hg
same,Systolic Blood Pressure (mm Hg),"[1]; po 10 mg/kg, 2 hours",-28 ± 10 mm Hg
same,Diastolic Blood Pressure (mm Hg),"[1]; po 10 mg/kg, 3 hours",-19 ± 8 mm Hg
same,Heart Rate (beats/ min),"[1]; po 10 mg/kg, 3 hours",-5 ± 11 beats/ min
same,Mean Blood Pressure (mm Hg),"[1]; po 10 mg/kg, 3 hours",-27 ± 4 mm Hg
same,Systolic Blood Pressure (mm Hg),"[1]; po 10 mg/kg, 3 hours",-36 ± 23 mm Hg
same,Diastolic Blood Pressure (mm Hg),"[1]; po 10 mg/kg, 4 hours",-16 ± 7 mm Hg
same,Heart Rate (beats/ min),"[1]; po 10 mg/kg, 4 hours",1 ± 3 beats/ min
same,Mean Blood Pressure (mm Hg),"[1]; po 10 mg/kg, 4 hours",-22 ± 12 mm Hg
same,Systolic Blood Pressure (mm Hg),"[1]; po 10 mg/kg, 4 hours",-31 ± 20 mm Hg
same,Diastolic Blood Pressure (mm Hg),"[1]; po 30 mg/kg, 1 hour",-6 ± 5 mm Hg
same,Heart Rate (beats/ min),"[1]; po 30 mg/kg, 1 hour",-1 ± 10 beats/ min
same,Mean Blood Pressure (mm Hg),"[1]; po 30 mg/kg, 1 hour",-5 ± 9 mm Hg
same,Systolic Blood Pressure (mm Hg),"[1]; po 30 mg/kg, 1 hour",-4 ± 14 mm Hg
same,Diastolic Blood Pressure (mm Hg),"[1]; po 30 mg/kg, 2 hours",-17 ± 6 mm Hg
same,Heart Rate (beats/ min),"[1]; po 30 mg/kg, 2 hours",9 ± 10 beats/ min
same,Mean Blood Pressure (mm Hg),"[1]; po 30 mg/kg, 2 hours",-14 ± 14 mm Hg
same,Systolic Blood Pressure (mm Hg),"[1]; po 30 mg/kg, 2 hours",-18 ± 10 mm Hg
same,Diastolic Blood Pressure (mm Hg),"[1]; po 30 mg/kg, 3 hours",-15 ± 5 mm Hg
same,Heart Rate (beats/ min),"[1]; po 30 mg/kg, 3 hours",18 ± 15 beats/ min
same,Mean Blood Pressure (mm Hg),"[1]; po 30 mg/kg, 3 hours",-17 ± 11 mm Hg
same,Systolic Blood Pressure (mm Hg),"[1]; po 30 mg/kg, 3 hours",-26 ± 17 mm Hg
same,Diastolic Blood Pressure (mm Hg),"[1]; po 30 mg/kg, 4 hours",-20 ± 9 mm Hg
same,Heart Rate (beats/ min),"[1]; po 30 mg/kg, 4 hours",20 ± 16 beats/ min
same,Systolic Blood Pressure (mm Hg),"[1]; po 30 mg/kg, 4 hours",-32 ± 20 mm Hg
